How the values were obtained:
[1] = tested on: choroid plexus epithelial cells; assay: Cell death quantification with Cell Death Detection ELISAPLUS kit; format: cell-based, rat; details: primary choroid plexus epithelial cells, Aβ40 5 mg/ml, 24 h, ELISA PLUS kit
Experimental: (§1) Primary cultures from choroid plexus epithelial cells from P3-P5 Wistar rats were prepared as described previously. Cells were grown to confluence for 5-7 days and serum starved for 2 hours. Cultures were maintained at 37°C in a humidified atmosphere containing 5% CO2, and cultivated for 7 days prior to experimentation. Human analogue peptides corresponding to Aβ1-40 and scrambled Aβ1-40 (AnaSpec, Inc.) were added. 24 hours after stimulation, cells were either fixed for immunocytochemical analysis or homogenized for immunoblot determination. For ICD p75NTR detection primary cultures cells proteasome inhibitor epoxomycin (1 μM) (Sigma) was applied 1.5 hours prior to Aβ treatment.
For cell death quantification, after incubation for 24 h with Aβ40 (5 mg/ml), choroid plexus epithelial cells in vitro were measured with Cell Death Detection ELISAPLUS kit (Roche Diagnostics) as described previously.

p75NTR = assay: Proteolytic processing of p75NTR (Western blot, immunofluorescence, cell fractionation); format: cell-based, rat
Experimental: as §1, with “24 hours after stimulation, cells were either fixed for immunocytochemical analysis or homogenized for immunoblot determination.” left out
For Western blot analysis cultures cells were washed once with ice-cold PBS and lysed in PIK buffer (150 mM NaCl, 20 mM TrisHCl pH 7.4, 1% NP40 and protease inhibitors: 1 μg/mL aprotinin, 1 μg/mL leupeptin and 1 μg/mL phenylmethylsulfonyl fluoride, PMSF). For cell fractionation cells were lysed with C buffer (10 mM HEPES, 60 mM KCl, 1 mM EDTA, 0.075% Triton X100, 1 mM DTT with protease inhibitors. The pellet nuclei was obtained by centrifugation 325 g, 4 minutes and resuspended in NB buffer (20 mM TrisHCl pH 8, 420 mM NaCl, 15 mM MgCl2, 0.2 mM EDTA, 25% Glicerol and protease inhibitors). Thereafter, the nuclei supernatant were obtained after centrifugation 9000 g, 10 minutes. After running the samples in acrylamide gels, proteins were transferred (immobilon, Bio-Rad) and membranes were incubated with the corresponding primary at 4°C overnight. Afterwards, membranes were washed and incubated with secondary antibodies. Membranes were washed several times with Tween-TBS and developed with ECL plus (Amersham). Western blot membranes were re-blotted with unrelated proteins (α-actin) as an internal standard and normalized for protein load. Densitometric analysis was performed using ImageJ software (NIH Image). A representative blot is shown from a total of at lest three independent experiments.
Immunocytochemistry was performed with primary cultures from choroid plexus plated on 20 mm coverslips and fixed. Rat and human choroid plexus were also fixed with 4% paraformaldehyde and processed for histochemical analysis. […]

## Aβ1-40: Human analogue peptides corresponding to Aβ1-40 (AnaSpec, Inc.)
[1]
  increase of cell death upon control cells: 29%
p75NTR; Aβ1-40 2.5 μg/mL for 15, 30 and 60 minutes, proteasome inhibitor pre-treatment, Western blot with antibody 9992
  release of p75NTR-ICD fragment (19 KDa): induced a release of ICD fragment at 15 and 30 minutes
p75NTR; Aβ1-40 2.5 μg/mL, 60 minutes, proteasome inhibitor 1.5 hours before, confocal microscopy
  nuclear accumulation of p75NTR-ICD, immunofluorescence: considerable accumulation of p75NTR-ICD occurred in the majority of nuclei
p75NTR; Aβ1-40 for 15, 30 and 60 minutes, nuclear and cytoplasmic extracts, Western blot with antibody 9992
  p75NTR-ICD 19 KDa band in nuclear extracts: enriched in nuclear extracts
